How the values were obtained:
[1] = tested on: CHO cells expressing human platelet receptors; experiment: Cell adhesion to immobilized vWF under flow; type: cell-based, Chinese Hamster; conditions: FIG. 2C; sildenafil 5 μM, RGDS 4 mM; 8-bromo-cGMP not shown
Experimental: CHO cells expressing human platelet receptors were resuspended in modified Tyrode's buffer, pH 7.4, containing 1 mg/mi of bovine serum albumin (BSA) (see Ref. 46), and final cell count was 5×10^5/ml. […] Purified human vWF (10 μg/ml in 0.1 M NaHCO3, pH 8.3) was added to glass microcapillary tubes (inner diameter of 1.33 mm and a length of 7.2 cm), and incubated at 4° C. for 20 h. The vWF-coated microcapillary tubes then were incubated with 5% BSA. After washing, the cell suspension was aspirated through the tube by a syringe pump (Harvard Apparatus Inc.) at desired shear rates for 1.2 minutes and washed with modified Tyrode's buffer for additional 10 minutes at the same shear rates to remove transiently adherent cells. The experiments were continuously recorded on videotape using a video cassette recorder (model 9500, Sony). The number of stably adherent cell on immobilized vWF was counted on images obtained at 20 randomly selected positions in the vWF-coated tubes.
In FIGS. 2A and B, vWF-coated capillary tubes were perfused with equivalent numbers (5×10^5/ml) of CHO cells expressing recombinant GPLb-JX alone (1b9), integrin αIIbβ3 alone (2b3a), both GPIb-IX and integrin αIIbβ3 (123) or expressing GPJb-JX, integrin α^IIbβ3 and PKG Ia (123PKG) at a shear rates of 800 s^−1 (A) or 1500 s^−1 (B) for 1.2 minutes, and then perfused with the modified Tyrodes buffer for 10 minutes at the same shear rates to wash out transient adherent cells. The expenments were recorded in real time. Cells stably adherent to vWF-coated capillary tubes at 20 randomly selected locations were counted.
In FIG. 2C, vector-transfected 123 cells (123) or 123PKG cells also was perfused into vWF-coated glass capillary tubes as described in FIG. 2A in the absence or presence (+RGDS) of an integrin inhibitor RGDS peptide (4 mM) and in the absence (Control) or presence of cGMP-enhancing drug, sildenafil (5 μM). […] The experiments were repeated at least three times.

[2] = tested on: 123 cells (CHO cells expressing recombinant human GPIb-IX and integrin αIIbβ3); experiment: vWF-induced GPIb-IX-mediated activation of integrin αIIbβ3 (Oregon green-labeled fibrinogen binding, flow cytometry); type: cell-based, Chinese Hamster; conditions: PKG-transfected 123 cells, 12 μg/ml vWF, 1 mg/ml ristocetin, FIGS. 1B, 1C
Experimental: Human PKG Iβ cDNA was cloned by RT-PCR, using human platelet mRNA as templates. Sequence of the human PKG Iβ cDNA fragment matches the published sequence. Cloning of human PKG Iα cDNA was described previously. PKG Iα or Iβ in pCDNA3.1/Zeo+vector was transfected into 123 cells (CHO cells expressing recombinant human CPIb-IX and integrin αIIbβ3 using Lipofectamine plus (BRL). Expression of PKG was assessed by Western blotting with an antihuman PKG I antibody (Calbiochem). The kinase activity of the expressed enzymes was measured in cell homogenates using BPDEtide (Calbiochem) as substrate as detailed previously. vWF-induced GPIb-IX-mediated activation of integrin αIIbβ3 was examined by flow cytometry analysis of Oregon green-labeled fibrinogen binding to integrln αIIbβ3 as described previously. Briefly, cells were detached from tissue culture plate using 0.5 mM EDTA, washed at 4° C. and resuspended in modified Tyrode's solution. Cells then were incubated with Oregon green-labeled fibrinogen (20 μg/ml) in the presence of ristocetin and vWF at 22° C. for 30 minutes, and analyzed by FACScalibur flow cytometer. Nonspecific binding of fibrinogen was estimated by measuring fibrinogon binding in the presence of a specific integrin inhibitor RGDS (1 mM) (see Refs. 13 and 43-45).
In FIG. 1A, CHO cells expressing GPLb-JX and integrin αIIbβ3 (123 cells) were transfected with cDNA encoding PKGIα or vector. Expression of PKG Ia in 123 cells was detected by Western blotting with an anti-human PKG I antibody (Insert), and recombinant PKG activity was determined in the absence or presence of 20 μM 8-bromo-cGMP as previously described. Results are expressed as mean +SD (n=3). For FIGS. 1B and 1C, reconstitution of GPIb-IX-mediated integrin activation in CHO cells was published (see Ref. 13). […] Cells were analyzed by flow cytometry. Quantitative results from three experiments are expressed as fibrinogen binding indices (total bound fluorescence (Fg)/nonspecifically bound fluorescence (Fg+RGDS)), and shown in FIG. 1B (mean ±SD).

With `Nc1nc2c(nc(Br)n2[C@@H]2O[C@@H]3COP(=O)(O)O[C@H]3[C@H]2O)c(=O)[nH]1` [8-bromo-cGMP] the “stable adhesion of PKG-expressing 123 cells (123PKG) to vWF under flow” value [1] was “enhanced”, the “vWF-induced fibrinogen binding to integrin” value [2] was “further increased” and the “vWF-induced fibrinogen binding to integrin” value ([2]; row) was “dramatically increased”.

Source: patent publication US20040087539A1, “Method of treating conditions related to platelet activity” (priority 2003, published 2004)
